# How the values were obtained:
# Assay in all cases: relative viability (nuclei count vs DMSO), 5 days (fraction); higher = more cells survive
# H3255 = system: H3255
# How it was run: (§1)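 Nuclei were stained with Hoechst during a one-step fixation (final 0.05% Triton X-100, 1% formaldehyde, 1 ug/ml Hoechst) carried out 5 days after dosing, then counted on 4× images. The cells, lung cancer lines in 1536-well plates, had been dosed by pin tool the day after seeding with one drug alone or a fixed anchor-drug dose plus five library-drug doses (not always all listed) in √10 steps. Relative viability is the nuclei count in treated wells divided by that in vehicle wells, and each value is the median of duplicate plates.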
# LCLC-103H = system: LCLC-103H
# How it was run: as §1
# LU99A = system: LU99A
# How it was run: as §1
# LCLC-97TM1 = system: LCLC-97TM1
# How it was run: as §1
# PC-14 = system: PC-14
# How it was run: as §1
# NCI-H460 = system: NCI-H460
# How it was run: as §1
# PC-3 [JPC-3] = system: PC-3 [JPC-3]
# How it was run: as §1
# SW 900 = system: SW 900
# How it was run: as §1
# NCI-H1793 = system: NCI-H1793
# How it was run: as §1
# NCI-H1944 = system: NCI-H1944
# How it was run: as §1
# NCI-H2347 = system: NCI-H2347
# How it was run: as §1
# LK-2 = system: LK-2
# How it was run: as §1
# NCI-H1651 = system: NCI-H1651
# How it was run: as §1
# NCI-H838 = system: NCI-H838
# How it was run: as §1
# RERF-LC-KJ = system: RERF-LC-KJ
# How it was run: as §1
# 201T = system: 201T
# How it was run: as §1
# NCI-H727 = system: NCI-H727
# How it was run: as §1
# A-427 = system: A-427
# How it was run: as §1
# NCI-H23 = system: NCI-H23
# How it was run: as §1
# NCI-H650 = system: NCI-H650
# How it was run: as §1
smiles,measurement,setting,value
C[C@@H]1CN(CC(=O)Nc2ccc3c(c2)Cc2cccc(-c4cc(=O)cc(N5CCOCC5)o4)c2S3)C[C@H](C)O1 + NC(=O)Nc1cc(-c2cccc(F)c2)sc1C(=O)N[C@H]1CCCNC1 [AZD7762] (partner 0.2 µM),relative viability,H3255; first compound 0.04 µM,0.792
same,relative viability,H3255; first compound 0.1265 µM,0.765
same,relative viability,H3255; first compound 0.4 µM,0.943
same,relative viability,H3255; first compound 4 µM,0.725
same,relative viability,LCLC-103H; first compound 0.04 µM,0.798
same,relative viability,LCLC-103H; first compound 0.1265 µM,0.755
same,relative viability,LCLC-103H; first compound 0.4 µM,0.761
same,relative viability,LCLC-103H; first compound 4 µM,0.631
same,relative viability,LU99A; first compound 0.04 µM,0.334
same,relative viability,LU99A; first compound 0.1265 µM,0.472
same,relative viability,LU99A; first compound 0.4 µM,0.465
same,relative viability,LU99A; first compound 4 µM,0.363
same,relative viability,LCLC-97TM1; first compound 0.1265 µM,0.222
same,relative viability,LCLC-97TM1; first compound 0.4 µM,0.231
same,relative viability,LCLC-97TM1; first compound 4 µM,0.221
same,relative viability,PC-14; first compound 0.04 µM,0.289
same,relative viability,PC-14; first compound 0.1265 µM,0.308
same,relative viability,PC-14; first compound 0.4 µM,0.32
same,relative viability,PC-14; first compound 4 µM,0.276
same,relative viability,NCI-H460; first compound 0.04 µM,0.617
same,relative viability,NCI-H460; first compound 0.1265 µM,0.638
same,relative viability,NCI-H460; first compound 0.4 µM,0.63
same,relative viability,NCI-H460; first compound 4 µM,0.368
same,relative viability,PC-3 [JPC-3]; first compound 0.04 µM,0.777
same,relative viability,PC-3 [JPC-3]; first compound 0.1265 µM,0.739
same,relative viability,PC-3 [JPC-3]; first compound 0.4 µM,0.796
same,relative viability,PC-3 [JPC-3]; first compound 4 µM,0.669
same,relative viability,SW 900; first compound 0.04 µM,0.629
same,relative viability,SW 900; first compound 0.1265 µM,0.669
same,relative viability,SW 900; first compound 0.4 µM,0.506
same,relative viability,SW 900; first compound 4 µM,0.281
same,relative viability,NCI-H1793; first compound 0.04 µM,0.588
same,relative viability,NCI-H1793; first compound 0.1265 µM,0.514
same,relative viability,NCI-H1793; first compound 0.4 µM,0.404
same,relative viability,NCI-H1793; first compound 4 µM,0.25
same,relative viability,NCI-H1944; first compound 0.1265 µM,0.561
same,relative viability,NCI-H1944; first compound 0.4 µM,0.605
same,relative viability,NCI-H1944; first compound 4 µM,0.396
same,relative viability,NCI-H2347; first compound 0.04 µM,0.811
same,relative viability,NCI-H2347; first compound 0.1265 µM,0.913
same,relative viability,NCI-H2347; first compound 0.4 µM,0.625
same,relative viability,NCI-H2347; first compound 4 µM,0.611
same,relative viability,LK-2; first compound 0.04 µM,0.331
same,relative viability,LK-2; first compound 0.1265 µM,0.363
same,relative viability,LK-2; first compound 0.4 µM,0.293
same,relative viability,LK-2; first compound 4 µM,0.432
same,relative viability,NCI-H1651; first compound 0.04 µM,0.428
same,relative viability,NCI-H1651; first compound 0.1265 µM,0.405
same,relative viability,NCI-H1651; first compound 0.4 µM,0.464
same,relative viability,NCI-H1651; first compound 4 µM,0.38
same,relative viability,NCI-H838; first compound 0.04 µM,0.802
same,relative viability,NCI-H838; first compound 0.1265 µM,0.909
same,relative viability,NCI-H838; first compound 0.4 µM,0.992
same,relative viability,NCI-H838; first compound 4 µM,0.861
same,relative viability,RERF-LC-KJ; first compound 0.04 µM,0.941
same,relative viability,RERF-LC-KJ; first compound 0.1265 µM,0.955
same,relative viability,RERF-LC-KJ; first compound 4 µM,0.929
same,relative viability,201T; first compound 0.04 µM,0.5
same,relative viability,201T; first compound 0.1265 µM,0.544
same,relative viability,201T; first compound 0.4 µM,0.586
same,relative viability,201T; first compound 4 µM,0.478
same,relative viability,NCI-H727; first compound 0.04 µM,0.525
same,relative viability,NCI-H727; first compound 0.1265 µM,0.625
same,relative viability,NCI-H727; first compound 0.4 µM,0.501
same,relative viability,NCI-H727; first compound 4 µM,0.7
same,relative viability,A-427; first compound 0.04 µM,0.855
same,relative viability,A-427; first compound 0.1265 µM,0.831
same,relative viability,A-427; first compound 0.4 µM,0.73
same,relative viability,A-427; first compound 4 µM,0.635
same,relative viability,NCI-H23; first compound 0.04 µM,0.238
same,relative viability,NCI-H23; first compound 0.1265 µM,0.22
same,relative viability,NCI-H23; first compound 0.4 µM,0.226
same,relative viability,NCI-H23; first compound 4 µM,0.18
same,relative viability,NCI-H650; first compound 0.04 µM,0.981
same,relative viability,NCI-H650; first compound 0.1265 µM,0.853
same,relative viability,NCI-H650; first compound 0.4 µM,1.21
same,relative viability,NCI-H650; first compound 4 µM,0.895
CC(C)Oc1cc(Nc2nc(N[C@@H](C)c3ccc(F)cn3)ncc2Cl)n[nH]1 [AZ23] + NC(=O)Nc1cc(-c2cccc(F)c2)sc1C(=O)N[C@H]1CCCNC1 [AZD7762] (partner 0.2 µM),relative viability,H3255; first compound 0.01 µM,0.828
same,relative viability,H3255; first compound 0.03162 µM,0.958
same,relative viability,H3255; first compound 0.3162 µM,0.931
same,relative viability,LCLC-103H; first compound 0.01 µM,0.875
same,relative viability,LCLC-103H; first compound 0.03162 µM,0.87
same,relative viability,LCLC-103H; first compound 0.3162 µM,0.881
same,relative viability,LU99A; first compound 0.01 µM,0.269
same,relative viability,LU99A; first compound 0.03162 µM,0.444
same,relative viability,LU99A; first compound 0.3162 µM,0.507
same,relative viability,LCLC-97TM1; first compound 0.01 µM,0.239
same,relative viability,LCLC-97TM1; first compound 0.03162 µM,0.327
same,relative viability,LCLC-97TM1; first compound 0.3162 µM,0.175
same,relative viability,PC-14; first compound 0.01 µM,0.326
same,relative viability,PC-14; first compound 0.03162 µM,0.339
same,relative viability,PC-14; first compound 0.3162 µM,0.375
same,relative viability,NCI-H460; first compound 0.01 µM,0.722
same,relative viability,NCI-H460; first compound 0.03162 µM,0.751
same,relative viability,NCI-H460; first compound 0.3162 µM,0.799
same,relative viability,PC-3 [JPC-3]; first compound 0.01 µM,0.663
same,relative viability,PC-3 [JPC-3]; first compound 0.03162 µM,0.837
same,relative viability,PC-3 [JPC-3]; first compound 0.3162 µM,0.77
same,relative viability,SW 900; first compound 0.01 µM,0.556
same,relative viability,SW 900; first compound 0.3162 µM,0.74
same,relative viability,NCI-H1793; first compound 0.01 µM,0.361
same,relative viability,NCI-H1793; first compound 0.03162 µM,0.498
same,relative viability,NCI-H1793; first compound 0.3162 µM,1.3
same,relative viability,NCI-H1944; first compound 0.01 µM,0.413
same,relative viability,NCI-H1944; first compound 0.03162 µM,0.532
same,relative viability,NCI-H1944; first compound 0.3162 µM,0.646
same,relative viability,NCI-H2347; first compound 0.01 µM,0.718
same,relative viability,NCI-H2347; first compound 0.03162 µM,0.818
same,relative viability,NCI-H2347; first compound 0.3162 µM,0.782
same,relative viability,LK-2; first compound 0.03162 µM,0.472
same,relative viability,LK-2; first compound 0.3162 µM,0.411
same,relative viability,NCI-H1651; first compound 0.01 µM,0.376
same,relative viability,NCI-H1651; first compound 0.03162 µM,0.541
same,relative viability,NCI-H1651; first compound 0.3162 µM,0.623
same,relative viability,NCI-H838; first compound 0.01 µM,0.934
same,relative viability,NCI-H838; first compound 0.03162 µM,1.05
same,relative viability,NCI-H838; first compound 0.3162 µM,0.991
same,relative viability,RERF-LC-KJ; first compound 0.01 µM,1.09
same,relative viability,RERF-LC-KJ; first compound 0.03162 µM,1.02
same,relative viability,RERF-LC-KJ; first compound 0.3162 µM,1.11
same,relative viability,201T; first compound 0.01 µM,0.321
same,relative viability,201T; first compound 0.03162 µM,0.576
same,relative viability,201T; first compound 0.3162 µM,0.743
same,relative viability,NCI-H727; first compound 0.01 µM,0.628
same,relative viability,NCI-H727; first compound 0.03162 µM,0.802
same,relative viability,NCI-H727; first compound 0.3162 µM,0.597
same,relative viability,A-427; first compound 0.01 µM,0.462
same,relative viability,A-427; first compound 0.03162 µM,0.724
same,relative viability,A-427; first compound 0.3162 µM,1.01
same,relative viability,NCI-H23; first compound 0.03162 µM,0.204
same,relative viability,NCI-H23; first compound 0.3162 µM,0.309
same,relative viability,NCI-H650; first compound 0.01 µM,0.954
same,relative viability,NCI-H650; first compound 0.03162 µM,1.14
same,relative viability,NCI-H650; first compound 0.3162 µM,1.12

# Reference: the supplement of paper PMC10307832
